Type in all cases: cell-based
Assay [1] deals with cleaved caspases 3, cleaved caspases 9 and cleaved PARP. Nature of the assay: Western blot of apoptotic markers in docetaxel treated cell lysates. The text has this:
FIG. 5: Higher LIMK1 expression diminished Taxane induced apoptotic response. PC3 cells were transiently transfected with either LIMK1 targeting shRNA construct or scrambled shRNA construct. […] After 24 hrs of DTX treatment, cell were harvested and apoptotic markers were monitored by immunoblot. Cyt c Release: PC3 and MCF7 were transiently transfected with LIMK1 and Scrambled shRNA constructs, P69 cells were transiently transfected with LIMK1 expression vector, LIMK1-shRNA vector or control vector. […] Following treatment cells were harvested and cytosolic, mitochondrial, and nuclear fractions were isolated. Presence of Cyt c in the cytosol was monitored by immunoblot of cytosolic fraction. Densinometry was used to determine relative values.
Western blots were probed with the following antibodies: mouse anti-human-GAPDH (Sigma); mouse anti-FLAG (Sigma); rabbit anti-human-LIMK1 (Santa Cruz; Santa Cruz, Calif.); mouse anti-human LIMK1 (BD Pharmingen, San Diego, Calif.); rabbit anti-Cleaved Caspase 3/9 and anti-Cleaved PARP (Cell Signaling); rabbit anti-human-alpha-tubulin (Sigma). Mouse anti-Cytochrome c (R&D Systems). Rabbit anti-Prohibitin (Abcam). Rabbit anti-Bax (Santa Cruz). Rabbit anti-Bcl2 (Cell Signaling)

Assay [2] has as its system P69. Nature of the assay: Flow cytometry cell cycle analysis (propidium iodide DNA content). To be noted: P69 cells, 2 μM docetaxel, 24 hrs. The procedure:
(§1) To confirm the results of the MTS assay, while further elucidating the link between LIMK1 expression and taxane sensitivity, the effects of taxane treatment on cell cycle were analyzed. […] Using flow cytometry to monitor DNA content, the percentages of cells in each phase of the cell cycle including the percentage of cells in the sub-G1 population (FIGS. 2A and B) were determined. […] Although after 24 hrs of treatment, the difference between cells lines became more apparent.
(§2) Cells were seeded into 60 mm dishes and transfected the following day with one of the previous constructs. […] At each time point, media and cells were collected, washed, and fixed in 70% EtOH at −20° C. for at least 30 mins. Cells were then washed and stained for 30 mins in PBS containing: 2% BSA; 0.1% Pluronic F-68 (Sigma); Propidium Iodide [80 ug/mL] (Sigma); RNase [100 ug/mL]. Data was collected using FACSCalibur and analyzed using Cell Quest and ModFit software.
In general terms: A flow cytometer gives signals particle by particle.

Assay [3] deals with MDA-MB-231. The description is as above. To be noted: MDA-MB-231 cells, 2 μM docetaxel, 24 hrs. The procedure:
as §1, §2

Assay [4] deals with PC-3. The description is as above. As to conditions: PC-3 cells, 2 μM docetaxel, 24 hrs. As to the method:
as §1
(§3) In order to confirm the implication of LIMK1 induced resistance to taxane treatment, the expression of LIMK1 in each cell line was altered. […] Sensitivity to the taxane treatment was monitored by MTS assay.
as §2

Assay [5] deals with MCF7. The assay is described as above. As to conditions: MCF7 cells, 2 μM docetaxel, 24 hrs. As to the method: as §1, §3, §2

The structures appear in SMILES notation.

Consider `CC(=O)O[C@@]12CO[C@@H]1C[C@H](O)[C@@]1(C)C(=O)[C@H](O)C3=C(C)[C@@H](OC(=O)[C@H](O)[C@@H](NC(=O)OC(C)(C)C)c4ccccc4)C[C@@](O)([C@@H](OC(=O)c4ccccc4)[C@H]21)C3(C)C` [docetaxel], for which the “cleaved PARP” value in assay [1] was “increased levels”. The “cleaved caspases 3” value in assay [1] was “increased levels”. Also, the “cleaved caspases 9” value in assay [1] is “increased levels”. Also, the sub-G1 population in assay [2] was 15%; in assay [3], 25%; in assay [4], 6%; in assay [5], 5%.

The values are drawn from US9532972B2, “Increasing taxane sensitivity in cancer cells” (UNIVERSITY OF CENTRAL FLORIDA RESEARCH FOUNDATION, INC., priority 2012, dated 2017).
